Results as given in US10683269B2 (MISSION THERAPEUTICS LIMITED, priority 2016, dated 2020).

Target: T1, USP7 (Homo sapiens, UniProt Q93009)
T1 construct: The USP7 construct was PCR amplified and cloned into a pFLAG-CMV-6a vector (Sigma-Aldrich) with an N-terminal FLAG tag; made in house; host or cells: HEK293T
Test: USP7 biochemical IC50 assay (fluorescence polarisation, TAMRA labelled peptide linked to ubiquitin via an iso-peptide bond)
Conditions: 30 min pre-incubation of enzyme and compound, read after 2 hr incubation at room temperature, read-out: IC50 range
How it was run: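 Fluorescence polarisation at 540 nm excitation/590 nm emission, read immediately and after 2 hr at room temperature, following addition of 50 nM TAMRA-labelled iso-peptide ubiquitin substrate.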

T1 sequence (Q93009 whole entry): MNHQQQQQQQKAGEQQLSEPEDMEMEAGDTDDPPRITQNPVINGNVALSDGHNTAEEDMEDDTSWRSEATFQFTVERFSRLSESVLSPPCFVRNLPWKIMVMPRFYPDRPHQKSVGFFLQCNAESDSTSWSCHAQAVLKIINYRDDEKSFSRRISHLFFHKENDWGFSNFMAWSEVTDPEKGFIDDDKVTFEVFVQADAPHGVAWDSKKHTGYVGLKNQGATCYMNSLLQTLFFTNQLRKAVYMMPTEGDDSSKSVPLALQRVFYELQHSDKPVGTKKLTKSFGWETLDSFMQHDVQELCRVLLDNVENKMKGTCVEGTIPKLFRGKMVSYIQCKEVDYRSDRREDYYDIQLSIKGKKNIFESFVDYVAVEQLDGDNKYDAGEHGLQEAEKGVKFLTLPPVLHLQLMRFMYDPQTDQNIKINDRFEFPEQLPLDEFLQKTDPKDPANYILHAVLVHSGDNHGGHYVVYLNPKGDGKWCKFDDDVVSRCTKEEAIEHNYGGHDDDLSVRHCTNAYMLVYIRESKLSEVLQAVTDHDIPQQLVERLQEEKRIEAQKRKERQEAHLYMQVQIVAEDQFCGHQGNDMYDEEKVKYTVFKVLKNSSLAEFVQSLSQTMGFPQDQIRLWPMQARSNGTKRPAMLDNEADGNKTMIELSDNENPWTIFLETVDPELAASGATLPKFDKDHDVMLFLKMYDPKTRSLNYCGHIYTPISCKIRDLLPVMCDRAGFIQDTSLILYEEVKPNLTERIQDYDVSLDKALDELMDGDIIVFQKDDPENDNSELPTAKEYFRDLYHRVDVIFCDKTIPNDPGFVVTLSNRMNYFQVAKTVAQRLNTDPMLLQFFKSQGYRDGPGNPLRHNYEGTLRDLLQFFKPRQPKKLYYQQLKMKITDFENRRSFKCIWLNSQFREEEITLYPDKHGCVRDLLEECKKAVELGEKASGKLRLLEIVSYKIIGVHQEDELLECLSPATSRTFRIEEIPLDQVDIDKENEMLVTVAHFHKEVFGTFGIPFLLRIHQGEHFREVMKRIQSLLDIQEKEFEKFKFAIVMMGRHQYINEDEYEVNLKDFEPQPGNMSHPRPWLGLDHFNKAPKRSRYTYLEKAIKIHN

Structure (SMILES)	IC50
COC(C)(O)CNc1cc2c(c(-c3ccc(C#N)cc3)c1)CN(C#N)C2 (centres unmarked) [Example 288, 4-(4-cyanophenyl)-6-((2-hydroxy-2-methoxypropyl)amino)iso-indoline-2-carbonitrile]	1000 to 10000 nM
N#Cc1cc2c(c(-c3ccc(F)cc3C(N)=O)c1)CN(C#N)C2 [Example 296, 2-(2,6-dicyanoisoindolin-4-yl)-5-fluorobenzamide]	1000 to 10000 nM
N#Cc1cc(F)c(-c2cc(C#N)cc3c2CN(C#N)C3)c(C(N)=O)c1 [Example 297, 5-cyano-2-(2,6-dicyanoisoindolin-4-yl)-3-fluorobenzamide]	1000 to 10000 nM
N#Cc1ccc(N2CCOC2=O)cc1-c1cccc2c1CN(C#N)C2 [Example 298, 4-(2-cyano-5-(2-oxooxazolidin-3-yl)phenyl)isoindoline-2-carbonitrile]	1000 to 10000 nM
N#Cc1ccc(N2CCCC2=O)cc1-c1cccc2c1CN(C#N)C2 [Example 299, 4-(2-cyano-5-(2-oxopyrrolidin-1-yl)phenyl)isoindoline-2-carbonitrile]	1000 to 10000 nM
N#CN1Cc2ncnc(-c3cccc(N4CCNC4=O)c3)c2C1 [Example 300, 4-(3-(2-oxoimidazolidin-1-yl)phenyl)-5,7-dihydro-6H-pyrrolo[3,4-c]pyrimidine-6-carbonitrile]	1000 to 10000 nM
N#Cc1cc(F)c(-c2cccc3c2CN(C#N)C3)c(C(N)=O)c1 [Example 301, 5-cyano-2-(2-cyanoisoindolin-4-yl)-3-fluorobenzamide]	1000 to 10000 nM

More lines, now with the values ahead:

IC50	Structure (SMILES)
1000 to 10000 nM	Cc1nc2c(c(-c3cccc(N4CCCC4=O)c3)n1)CN(C#N)C2 [Example 289, 2-methyl-4-(3-(2-oxopyrrolidin-1-yl)phenyl)-5,7-dihydro-6H-pyrrolo[3,4-d]pyrimidine-6-carbonitrile]
1000 to 10000 nM	Cn1nccc1CNc1nc2c(c(-c3cccc(N4CCCC4=O)c3)n1)CN(C#N)C2 [Example 290, 2-(((1-methyl-1H-pyrazol-5-yl)methyl)amino)-4-(3-(2-oxopyrrolidin-1-yl)phenyl)-5,7-dihydro-6H-pyrrolo[3,4-d]pyrimidine-6-carbonitrile]
< 1000 nM	N#CN1Cc2nc(NCCO)nc(-c3cccc(N4CCCC4=O)c3)c2C1 [Example 291, 2-((2-hydroxyethyl)amino)-4-(3-(2-oxopyrrolidin-1-yl)phenyl)-5,7-dihydro-6H-pyrrolo[3,4-d]pyrimidine-6-carbonitrile]
< 1000 nM	N#CN1Cc2nc(NCCO)nc(-c3cccc(N4CCOC4=O)c3)c2C1 [Example 292, 2-((2-hydroxyethyl)amino)-4-(3-(2-oxooxazolidin-3-yl)phenyl)-5,7-dihydro-6H-pyrrolo[3,4-d]pyrimidine-6-carbonitrile]
1000 to 10000 nM	CNC(=O)c1cc2c(c(-c3cc(OC)cnc3C#N)c1)CN(C#N)C2 [Example 293, 2-cyano-7-(2-cyano-5-methoxypyridin-3-yl)-N-methylisoindoline-5-carboxamide]
1000 to 10000 nM	N#Cc1cc(-c2cn[nH]c2)ccc1-c1cccc2c1CN(C#N)C2 [Example 294, 4-(2-cyano-4-(1H-pyrazol-4-yl)phenyl)isoindoline-2-carbonitrile]
1000 to 10000 nM	CN1CCCC(CN(C)c2nc3c(c(N4CCc5cccnc5C4)n2)CN(C#N)C3)C1 (centres unmarked) [Example 295, 4-(5,8-dihydro-1,7-naphthyridin-7(6H)-yl)-2-(methyl((1-methylpiperidin-3-yl)methyl)amino)-5,7-dihydro-6H-pyrrolo[3,4-d]pyrimidine-6-carbonitrile]
